Test results reported in patent publication US9593127B2, “Heterocyclylalkyne derivatives and their use as modulators of mGluR5 receptors” (RECORDATI IRELAND LTD., priority 2014, dated 2017).

What was measured:
[1] = target: T1, human mGlu5 receptor (CHO T-REx h-mGluR5 cells) (Homo sapiens (Human), UniProt P41594); assay: Radioligand binding assay at cloned mGluR5 ([3H]MPEP displacement); conditions: 4 nM [3H]MPEP, read-out: h.c. mglu R5 IC50
From the text: (§1) Cell lines stably transfected were generated using inducible expression vectors encoding human mGlu5 receptor using the Tetracycline-Regulated Expression system (T-REx™ system, Invitrogen, Life Technologies). Human mGluR5 open reading frame (ORF), comprehensive of the stop codon, were cloned into the pcDNA4/TO/myc-His™ A vector, carrying the TetO2 sequences. The insertion site was HindIII-PstI for mGluR5 receptors. The obtained constructs were then transfected into the T-REx CHO™ cell line using the FuGENE protocol (Roche); the CHO T-REx™ cell line stably expresses the Tet repressor (from the pcDNA6/TR plasmid) under the selection of blasticidin, 10 μg/ml. Stable clones were obtained selecting with zeocine 1 mg/ml and maintaining in ULTRA CHO medium (LONZA) supplemented with dialyzed FBS, zeocin, blasticidine, at 37° C., in an atmosphere of 5% CO2. The expression of h-mGluR5 receptors was de-repressed with 1 μg/ml tetracycline for 18 h before binding experimentation, while the expression of h-mGluR5 receptors was de-repressed respectively with 3 ng/ml and 10 ng/ml tetracycline for 18 h before calcium fluorescence experimentation.
Affinity at transmembrane glutamate metabotropic mGluR5 receptor subtypes was evaluated according to the methods of Anderson (Anderson et al., J Pharmacol. Exp. Ther., (2002), Vol. 303(3), pp. 1044-51), with some modifications. Cloned mGluR5 was obtained by re-suspending CHO T-REx h-mGluR5 cells (50 μg/well) in 20 mM HEPES, 2 mM MgCl2, 2 mM CaCl2, pH 7.4, that then were incubated in a final volume of 1 ml for 60 min at 25° C. with 4 nM [^3H]MPEP in the absence or presence of competing drugs. Non-specific binding was determined in the presence of […] MPEP. The incubation was stopped by addition of cold Tris buffer pH 7.4 and rapid filtration through 0.2% polyethyleneimine pretreated Filtermat 1204-401 (Perkin Elmer) filters. The filters were then washed with cold buffer and the radioactivity retained on the filters was counted by liquid scintillation spectrometry (Betaplate 1204 BS-Wallac).
(§2) The antagonist potency was determined using the EC80 of the quisqualate used as agonist and the potentiation of mGlu5 activation was determined using the EC20 of the agonist (quisqualate or glutamate). The compounds were applied 10 minutes before the application of the agonist. For binding and calcium assay studies, the compounds were dissolved in DMSO or demineralized water according to their solubility. All the reported doses were those of the corresponding salts or bases.
The inhibition curves of the tested compounds at native and cloned mGluR1 and mGluR5 subtypes were determined by nonlinear regression analysis using software Prism 4.0 (Graphpad, San Diego, Calif.). The IC50 values and pseudo-Hill slope coefficients were estimated by the program. The values for the inhibition constant, Ki, were calculated according to the equation Ki=IC50/(1+[L]/Kd), where [L] is the concentration of radioligand and Kd is the equilibrium dissociation constant of the radioligand-receptor complex (Cheng et al., Biochem. Pharmacol. (1973), Vol. 22, pp. 3099-3108).

[2] = target: T1, human mGlu5 receptor (CHO T-REx h-mGluR5 cells); assay: Calcium fluorescence measurement, potentiation of mGlu5 activation at EC20 of quisqualate; format: cell-based; conditions: agonist quisqualate
From the text: as §1
(§3) Cells were seeded into black-walled, clear-bottom, 96-well plates at a density of 80000 cell/well, in RPMI (without Phenol Red, without L-glutamine; Gibco LifeTechnologies, CA) supplemented with 10% dialyzed FBS. Following 18-h incubation with tetracycline, the cells were loaded with […] Ca^2+—sensitive fluorescent dye Fluo-4/AM (Molecular Probes) in Hanks' balanced saline solution (HBSS, Gibco LifeTechnologies, CA) with 20 mM Hepes (Sigma) and 2.5 mM probenecid (Sigma), for 1 h at 37° C. The cells were washed three times with HBSS to remove extracellular dye. Fluorescence signals were measured by using the fluorescence microplate reader Flexstation III (Molecular Devices) at sampling intervals of 1.5 s for 60 s.
as §2

[3] = target: T1, human mGlu5 receptor (CHO T-REx h-mGluR5 cells); assay: Calcium fluorescence measurement, potentiation of mGlu5 activation at EC20 of glutamate; format: cell-based; conditions: for Fold Increase Glutam. / Fold Increase 1 microM Glutam.: agonist glutamate; for EC50: potentiation, agonist glutamate at EC20, read-out: EC50 nM Glutam.
From the text: as §1, §3, §2

T1 sequence (P41594 21-1212): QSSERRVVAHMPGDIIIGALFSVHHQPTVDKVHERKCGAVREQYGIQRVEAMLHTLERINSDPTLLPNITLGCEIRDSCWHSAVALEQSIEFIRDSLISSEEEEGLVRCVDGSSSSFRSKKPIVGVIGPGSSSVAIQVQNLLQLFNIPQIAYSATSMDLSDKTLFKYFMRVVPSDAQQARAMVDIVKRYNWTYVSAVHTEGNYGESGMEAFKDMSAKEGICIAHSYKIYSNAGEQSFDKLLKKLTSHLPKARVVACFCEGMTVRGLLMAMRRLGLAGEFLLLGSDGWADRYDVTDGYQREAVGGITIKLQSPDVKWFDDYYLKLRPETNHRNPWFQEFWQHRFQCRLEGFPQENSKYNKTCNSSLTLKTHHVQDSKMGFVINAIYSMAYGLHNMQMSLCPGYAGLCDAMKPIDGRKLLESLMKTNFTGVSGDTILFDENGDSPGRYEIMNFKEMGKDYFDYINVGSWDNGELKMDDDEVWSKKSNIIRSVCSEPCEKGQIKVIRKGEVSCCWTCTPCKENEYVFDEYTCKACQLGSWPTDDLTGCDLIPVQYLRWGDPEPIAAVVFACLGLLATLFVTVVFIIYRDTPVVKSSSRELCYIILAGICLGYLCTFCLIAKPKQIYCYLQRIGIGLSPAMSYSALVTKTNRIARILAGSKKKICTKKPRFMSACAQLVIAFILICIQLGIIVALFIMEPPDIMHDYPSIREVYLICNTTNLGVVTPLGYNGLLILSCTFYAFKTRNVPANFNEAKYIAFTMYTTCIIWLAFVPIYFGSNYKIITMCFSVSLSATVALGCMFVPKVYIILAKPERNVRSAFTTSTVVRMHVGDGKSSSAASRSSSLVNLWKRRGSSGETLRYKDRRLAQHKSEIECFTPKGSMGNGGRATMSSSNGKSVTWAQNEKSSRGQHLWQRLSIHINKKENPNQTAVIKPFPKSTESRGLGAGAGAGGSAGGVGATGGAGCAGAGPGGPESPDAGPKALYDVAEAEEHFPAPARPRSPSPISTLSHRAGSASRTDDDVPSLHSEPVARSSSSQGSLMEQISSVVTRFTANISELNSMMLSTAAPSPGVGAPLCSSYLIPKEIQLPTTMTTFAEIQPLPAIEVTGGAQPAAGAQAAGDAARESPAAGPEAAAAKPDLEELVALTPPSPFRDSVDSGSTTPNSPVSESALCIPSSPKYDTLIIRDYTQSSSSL

IC50 [1] | Fold Inc. Quisq. [2] | Fold Increase Glutam. [3] | Fold Increase 1 microM Glutam. [3] | EC50 [3] | SMILES
> 1000 nM | 1.27 fold | – | – | – | Cc1cccc(C#CC2=NOC3C2CCN3C(=O)N2CCCCC2)n1 (stereo not drawn) [Example 17, [3-[2-(6-methyl-2-pyridyl)ethynyl]-3a,4,5,6a-tetrahydropyrrolo[3,2-d]isoxazol-6-yl]-(1-piperidyl)methanone]
239 nM | – | – | – | – | CON(C)C(=O)N1CCC2C(C#Cc3cccc(C)n3)=NOC21 (stereo not drawn) [Example 19, N-methoxy-N-methyl-3-[2-(6-methyl-2-pyridyl)ethynyl]-3a,4,5,6a-tetrahydropyrrolo[3,2-d]isoxazole-6-carboxamide]
6.99 nM | – | – | – | – | CCN(C(=O)N1CCC2C(C#Cc3cccc(Cl)c3)=NOC21)C(C)C (stereo not drawn) [Example 4, 3-[2-(3-chlorophenyl)ethynyl]-N-ethyl-N-isopropyl-3a,4,5,6a-tetrahydropyrrolo[3,2-d]isoxazole-6-carboxamide]
– | – | 0 fold | – | – | O=C(c1ccoc1)N1CCC2C(C#Cc3cccc(Cl)c3)=NOC21 (stereo not drawn) [Example 28]
– | – | 0 fold | – | – | Cc1ccc(C(=O)N2CCC3C(C#Cc4cccc(Cl)c4)=NOC32)o1 (stereo not drawn) [Example 29, 3-(3-chlorophenylethynyl)-3a,4,5,6a-tetrahydropyrrolo[3,2-d]isoxazol-6-yl-(5-methylfuran-2-yl)methanone]
– | – | 4.7 fold | 3.11 fold | 777 nM | O=C(OCC1CC1)N1CCC2C(C#Cc3cccc(Cl)c3)=NOC21 (stereo not drawn) [Example 22, cyclopropylmethyl-3-(3-chlorophenylethynyl)-3a,4,5,6a-tetrahydropyrrolo[3,2-d]isoxazole-6-carboxylate]
– | – | 0 fold | – | – | O=C(Nc1cccnc1)N1CCC2C(C#Cc3cccc(Cl)c3)=NOC21 (stereo not drawn) [Example 36, 3-(3-chlorophenylethynyl)-N-(pyridin-3-yl)-3a,4,5,6a-tetrahydropyrrolo[3,2-d]isoxazole-6-carboxamide]
– | – | 2.92 fold | 1.92 fold | 1100 nM | CN1CCN(C(=O)N2CCC3C(C#Cc4cccc(Cl)c4)=NOC32)CC1 (stereo not drawn) [Example 32, 3-(3-chlorophenylethynyl)-3a,4,5,6a-tetrahydropyrrolo[3,2-d]isoxazol-6-yl-(4-methylpiperazin-1-yl)methanone]
– | – | 0 fold | – | – | CC(C)OC(=O)N1CCC2C(C#Cc3cccc(Cl)c3)=NOC21 (stereo not drawn) [Example 21, isopropyl-3-(3-chlorophenylethynyl)-3a,4,5,6a-tetrahydropyrrolo[3,2-d]isoxazole-6-carboxylate]
> 1000 nM | – | – | – | – | Cc1cccc(C#CC2=NOC3C2CCN3C(=O)N2CCOCC2)n1 (stereo not drawn) [Example 18, [3-[2-(6-methyl-2-pyridyl)ethynyl]-3a,4,5,6a-tetrahydropyrrolo[3,2-d]isoxazol-6-yl]-morpholino-methanone]
– | – | 3.69 fold | 3.95 fold | 108 nM | O=C(C1CCCC1)N1CCC2C(C#Cc3cccc(Cl)c3)=NOC21 (stereo not drawn) [Example 30, 3-(3-chlorophenylethynyl)-3a,4,5,6a-tetrahydropyrrolo[3,2-d]isoxazol-6-yl-(cyclopentyl)methanone]
– | – | 5.09 fold | 2.65 fold | 54.6 nM | CC(C)(C)NC(=O)N1CCC2C(C#Cc3cccc(Cl)c3)=NOC21 (stereo not drawn) [Example 26, N-t-butyl-3-(3-chlorophenylethynyl)-3a,4,5,6a-tetrahydropyrrolo[3,2-d]isoxazole-6-carboxamide]
– | – | 5.11 fold | 4.08 fold | 96.9 nM | O=C(NC1CCCC1)N1CCC2C(C#Cc3cccc(Cl)c3)=NOC21 (stereo not drawn) [Example 27, 3-(3-chlorophenylethynyl)-N-cyclopentyl-3a,4,5,6a-tetrahydropyrrolo[3,2-d]isoxazole-6-carboxamide]
708 nM | 0 fold | – | – | – | Cc1cccc(C#CC2=NOC3C2CCN3C(=O)OC(C)(C)C)n1 (stereo not drawn) [Example 5, tert-butyl 3-[2-(6-methyl-2-pyridyl)ethynyl]-3a,4,5,6a-tetrahydropyrrolo[3,2-d]isoxazole-6-carboxylate]
> 1000 nM | 0 fold | – | – | – | CCOC(=O)N1CCC2C(C#Cc3cccc(C)n3)=NOC21 (stereo not drawn) [Example 20, ethyl 3-[2-(6-methyl-2-pyridyl)ethynyl]-3a,4,5,6a-tetrahydropyrrolo[3,2-d]isoxazole-6-carboxylate]
152 nM | – | – | – | – | CCOC(=O)N1CCC2C(C#Cc3cccc(C)c3)=NOC21 (stereo not drawn) [Example 16, ethyl 3-[2-(m-tolyl)ethynyl]-3a,4,5,6a-tetrahydropyrrolo[3,2-d]isoxazole-6-carboxylate]
10.6 nM | – | – | – | – | Cc1cccc(C#CC2=NOC3C2CCN3C(=O)N2CCCCC2)c1 (stereo not drawn) [Example 12, [3-[2-(m-tolyl)ethynyl]-3a,4,5,6a-tetrahydropyrrolo[3,2-d]isoxazol-6-yl]-(1-piperidyl)methanone]
– | – | 5.29 fold | 2.14 fold | 301 nM | O=C(C1CCOCC1)N1CCC2C(C#Cc3cccc(Cl)c3)=NOC21 (stereo not drawn) [Example 31, 3-(3-chlorophenylethynyl)-3a,4,5,6a-tetrahydropyrro[3,5,6a-tetrahdrorrolo3,2-d]oxazol-6-yl-(oxan-4-yl)methanone]
– | – | 5.8 fold | 8.48 fold | 33.9 nM | CC(C)(C)COC(=O)N1CCC2C(C#Cc3cccc(Cl)c3)=NOC21 (stereo not drawn) [Example 24, 2,2-dimethylpropyl-3-(3-chlorophenylethynyl)-3a,4,5,6a-tetrahydropvrrolo[3,2-d]isoxazole-6-carboxylate]
– | – | 0 fold | – | – | CC(C)NC(=O)N1CCC2C(C#Cc3cccc(Cl)c3)=NOC21 (stereo not drawn) [Example 25, 3-(3-chlorophenylethynyl)-N-(propan-2-yl)-3a,4,5,6a-tetrahydropyrrolo[3,2-d]isoxazole-6-carboxamide]
– | – | – | – | 542 nM | CC(C)CCOC(=O)N1CCC2C(C#Cc3cccc(Cl)c3)=NOC21 (stereo not drawn) [Example 34, 3-methylbutyl-3-(3-chlorophenylethynyl)-3a,4,5,6a-tetrahydropyrrolo[3,2-d]isoxazole-6-carboxylate]
– | – | – | – | 144 nM | O=C(OC1CCCC1)N1CCC2C(C#Cc3cccc(Cl)c3)=NOC21 (stereo not drawn) [Example 23, cyclopentyl-3-(3-chlorophenylethynyl)-3a,4,5,6a-tetrahydropyrrolo[3,2-d]isoxazole-6-carboxylate]
